The supplement of paper PMC10307832

Each cell line was assayed with CC(C)C[C@H](NC(=O)[C@H](CCc1ccccc1)NC(=O)CN1CCOCC1)C(=O)N[C@@H](Cc1ccccc1)C(=O)N[C@@H](CC(C)C)C(=O)[C@@]1(C)CO1 [Carfilzomib] + CS(=O)(=O)N1CCN(Cc2cc3nc(-c4cccc5[nH]ncc45)nc(N4CCOCC4)c3s2)CC1 [Pictilisib] (partner 1 µM) (assay: relative viability (nuclei count vs DMSO), 5 days (fraction); higher = more cells survive). Details: first compound 0.001 µM.
Summary of the method: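 Dosing by pin tool came one day after lung cancer cell lines were seeded in 1536-well plates, using either one drug or a fixed anchor-drug dose plus five library-drug doses (not always all listed) in √10 steps. After 5 days, nuclei were counted on 4× images. Relative viability is treated-well nuclei count divided by vehicle-well nuclei count, and values are medians of duplicate plates.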

Cell Line	relative viability
NCI-H596	0.365
NCI-H650	0.83
NCI-H661	0.391
NCI-H727	0.32
NCI-H838	0.487
NCI-H1355	0.404
NCI-H1437	0.313
NCI-H1563	0.615
NCI-H1651	0.551
NCI-H1666	0.536
NCI-H1734	0.476
NCI-H1755	0.412
NCI-H1792	0.291
NCI-H1915	0.973
NCI-H1975	0.284
NCI-H1993	0.756
NCI-H2009	0.859
NCI-H2023	0.213
NCI-H2085	0.443
NCI-H2087	0.802
NCI-H2126	0.557
NCI-H2228	0.465
NCI-H2347	0.662
NCI-H3122	0.585

Same assay, conditions: first compound 0.003162 µM

Cell Line	relative viability
LU99A	0.341
LXF-289	0.776
NCI-H23	0.551
NCI-H322M	0.507
NCI-H460	0.376
NCI-H520	0.246
NCI-H596	0.425
NCI-H647	0.562
NCI-H650	1.06
NCI-H661	0.458
NCI-H727	0.43
NCI-H838	0.525
NCI-H1355	0.6
NCI-H1437	0.463
NCI-H1563	0.62
NCI-H1650	0.685
NCI-H1651	0.601

Cell Line	relative viability
NCI-H1666	0.676
NCI-H1734	0.501
NCI-H1755	0.479
NCI-H1792	0.313
NCI-H1915	1
NCI-H1975	0.301
NCI-H1993	0.771
NCI-H2009	1.07
NCI-H2023	0.257
NCI-H2085	0.45
NCI-H2087	0.874
NCI-H2126	0.477
NCI-H2228	0.468
NCI-H2347	0.623
NCI-H2405	0.583
NCI-H3122	0.615

Same assay, conditions: first compound 0.01 µM

Cell Line	relative viability
LU99A	0.331
LXF-289	0.644
NCI-H23	0.436
NCI-H322M	0.567
NCI-H460	0.381
NCI-H520	0.222
NCI-H596	0.398
NCI-H647	0.397
NCI-H650	1.01
NCI-H661	0.457
NCI-H727	0.418
NCI-H838	0.449
NCI-H1355	0.396
NCI-H1437	0.41
NCI-H1563	0.689
NCI-H1650	0.284
NCI-H1651	0.231

Cell Line	relative viability
NCI-H1666	0.586
NCI-H1734	0.389
NCI-H1755	0.413
NCI-H1792	0.282
NCI-H1915	0.8
NCI-H1975	0.219
NCI-H1993	0.717
NCI-H2009	0.753
NCI-H2023	0.263
NCI-H2085	0.48
NCI-H2087	0.552
NCI-H2126	0.512
NCI-H2228	0.206
NCI-H2347	0.67
NCI-H2405	0.521
NCI-H3122	0.6

Same assay, conditions: first compound 0.03162 µM

Cell Line	relative viability
LU99A	0.238
LXF-289	0.0604
NCI-H23	0.159
NCI-H322M	0.538
NCI-H460	0.0673
NCI-H520	0.176
NCI-H596	0.259
NCI-H647	0.0769
NCI-H650	0.385
NCI-H661	0.483
NCI-H727	0.215
NCI-H838	0.615
NCI-H1355	0.219
NCI-H1437	0.322
NCI-H1563	0.595
NCI-H1650	0.127
NCI-H1651	0.0999

Cell Line	relative viability
NCI-H1666	0.422
NCI-H1734	0.234
NCI-H1755	0.239
NCI-H1792	0.24
NCI-H1915	0.572
NCI-H1975	0.0929
NCI-H1993	0.648
NCI-H2009	0.126
NCI-H2023	0.156
NCI-H2085	0.306
NCI-H2087	0.0964
NCI-H2126	0.555
NCI-H2228	0.102
NCI-H2347	0.549
NCI-H2405	0.321
NCI-H3122	0.602

Same assay, conditions: first compound 0.1 µM

Cell Line	relative viability
LU99A	0.151
LXF-289	0.0625
NCI-H23	0.122
NCI-H322M	0.307
NCI-H460	0.0409
NCI-H520	0.186
NCI-H596	0.18
NCI-H647	0.036
NCI-H650	0.189
NCI-H661	0.238
NCI-H727	0.148
NCI-H838	0.144
NCI-H1355	0.145
NCI-H1437	0.0975
NCI-H1563	0.548
NCI-H1650	0.151
NCI-H1651	0.0685

Cell Line	relative viability
NCI-H1666	0.228
NCI-H1734	0.127
NCI-H1755	0.16
NCI-H1792	0.199
NCI-H1915	0.123
NCI-H1975	0.101
NCI-H1993	0.61
NCI-H2009	0.0415
NCI-H2023	0.0927
NCI-H2085	0.269
NCI-H2087	0.18
NCI-H2126	0.446
NCI-H2228	0.115
NCI-H2347	0.318
NCI-H2405	0.174
NCI-H3122	0.34
